Results taken from publication PMC5883364 (Malaria Journal, 2018).
Entries after “also recorded” stand apart in the source; their conditions may differ. Read-outs that look alike come from different tables or passages of the source.

Columns and labels:
[1] = tested on: P. falciparum Dd2 (chloroquine-resistant, mefloquine-resistant); assay: SYBR Green I assay, IC50, strain Dd2; format: cell-based, Plasmodium falciparum; conditions: for Resistance Index RIa = IC50 (Dd2)/IC50 (3D7): Dd2 vs 3D7
Description: (§1) Staging and parasitaemia were determined by light microscopy of Giemsa-stained thin blood smears. Anti-malarial activity was determined using the SYBR Green I assay, as previously described.

[2] = tested on: P. falciparum IPC5202 (artemisinin-resistant, K13 R539T); assay: SYBR Green I assay, IC50, strain IPC5202; format: cell-based, Plasmodium falciparum; conditions: for IC50: Plasmodium falciparum, read-out: P. falciparum IC50 ± SD, IPC5202, strain IPC5202; for Resistance Index RIb = IC50 (IPC5202)/IC50 (3D7): IPC5202 vs 3D7
Description: as §1

[3] = tested on: P. falciparum IPC4912 (artemisinin-resistant, K13 I543T); assay: SYBR Green I assay, IC50, strain IPC4912; format: cell-based, Plasmodium falciparum; conditions: for IC50: Plasmodium falciparum, read-out: P. falciparum IC50 ± SD, IPC4912; for Resistance Index RIc = IC50 (IPC4912)/IC50 (3D7): IPC4912 vs 3D7
Description: Staging and parasitaemia were determined by light microscopy of Giemsa-stained thin blood smears. Anti-malarial activity was determined using the SYBR Green I assay, as previously described. Briefly, early ring stage parasites (> 80% of rings) were challenged with a 1:3 serial dilution of each compound, in concentrations ranging from 10,000–0.169 nM. Fluorescence intensity was measured with a multi-mode microplate reader (Triad, Dynex Technologies), with excitation and emission wavelengths of 485 and 535 nm, respectively, and analysed by nonlinear regression using GraphPad Prism to determine IC50 values.

[4] = tested on: HepG2-A16 (human hepatoma) cells; conditions: for Selectivity index LD50 (HepG2)/IC50 (3D7): HepG2 vs 3D7; for Selectivity index LD50 (HepG2)/IC50 (Dd2): HepG2 vs Dd2; for Selectivity index LD50 (HepG2)/IC50 (IPC4912): HepG2 vs IPC4912; for Selectivity index LD50 (HepG2)/IC50 (IPC5202): HepG2 vs IPC5202; for LD50 HepG2: human, 48 h
Description: (§2) Cytotoxicity was assessed on the mammalian cell lines HepG2-A16 (human hepatoma) and V79 (Chinese hamster lung), using a MTT based assay, as previously described. […] V79 and HepG2 cell lines were incubated for 24 and 48 h, respectively (media changed at 24 h intervals). Absorbance was read at 570 nm on a multi-mode microplate reader (Triad, Dynex Technologies), to produce a log dose-dependence curve. The LD50 value for each compound was estimated by non-linear interpolation of the dose-dependence curve (GraphPad Software).

[5] = tested on: V79 (Chinese hamster lung) cells; conditions: for LD50 V79: Chinese hamster, 24 h; for Selectivity index LD50 (V79)/IC50 (3D7): V79 vs 3D7; for Selectivity index LD50 (V79)/IC50 (Dd2): V79 vs Dd2; for Selectivity index LD50 (V79)/IC50 (IPC4912): V79 vs IPC4912; for Selectivity index LD50 (V79)/IC50 (IPC5202): V79 vs IPC5202
Description: as §2

[6] = tested on: P. falciparum 3D7 (chloroquine and mefloquine sensitive); assay: SYBR Green I assay, IC50, strain 3D7; format: cell-based, Plasmodium falciparum; conditions: Plasmodium falciparum, 3D7, read-out: P. falciparum IC50 ± SD, 3D7
Description: as §1

Plasmodium berghei NK65 = assay: Peters' 4-day suppressive test in Swiss albino mice; format: in vivo; conditions: for in vivo outcome against P. berghei in words / inhibition in vivo at 50 mg/kg/day / Mean parasitaemia ± SD, Day 5 / Mean parasitaemia ± SD, Day 7 / Mean parasitaemia ± SD, Day 10: 50 mg/kg/day oral for 4 days; for in vivo outcome against P. berghei in words: followed to day 10; for inhibition in vivo at 50 mg/kg/day: Plasmodium berghei; for inhibition in vivo at 50 mg/kg/day / Mean parasitaemia ± SD, Day 5 / Mean parasitaemia ± SD, Day 7 / Mean parasitaemia ± SD, Day 10: mice
Description: In vivo tests were performed following the Guidelines for Ethical Conduct in The Care and Use of Animals of the Federal University of Rio Grande do Norte—Brazil (CEUA/UFRN/46/2013). Evaluation of anti-malarial activity in vivo was carried out using the Peters’ 4-day suppressive test, with modifications, as previously described. Swiss albino mice were infected with Plasmodium berghei NK65 and randomly allocated to groups of five animals. Animals were treated with 50 mg/kg/day of each of the tested compounds (dissolved in PBS containing 1% DMSO), administrated orally, for four consecutive days. The control group was treated with a solution of PBS/1% DMSO. On days 5 (D5), 7 (D7) and 10 (D10) after parasite inoculation, tail blood smears were Giemsa-stained and examined microscopically to estimate parasitaemia. Acute toxicity testing was carried out to determine adverse effects due to compounds (including weight loss, hair appearance, skin wounds and behavioural changes), and recorded daily.

[7] = 120 h, day 5, vs control group, read-out: % inhibition of parasite growth, Day 5 (converted)
[8] = 168 h, day 7, vs control group, read-out: % inhibition of parasite growth, Day 7 (converted)
[9] = 240 h, day 10, vs control group, read-out: % inhibition of parasite growth, Day 10 (converted)

| SMILES | IC50 [2] [nM] | IC50 [3] [nM] | Selectivity index LD50 (HepG2)/IC50 (3D7) [4] | Selectivity index LD50 (HepG2)/IC50 (Dd2) [4] | Selectivity index LD50 (HepG2)/IC50 (IPC4912) [4] | Selectivity index LD50 (HepG2)/IC50 (IPC5202) [4] | LD50 HepG2 [4] [mM] | LD50 V79 [5] [mM] | Selectivity index LD50 (V79)/IC50 (3D7) [5] | Selectivity index LD50 (V79)/IC50 (Dd2) [5] | Selectivity index LD50 (V79)/IC50 (IPC4912) [5] | Selectivity index LD50 (V79)/IC50 (IPC5202) [5] | Resistance Index RIb = IC50 (IPC5202)/IC50 (3D7) [2] | Resistance Index RIc = IC50 (IPC4912)/IC50 (3D7) [3] | inhibition in vivo at 50 mg/kg/day (Plasmodium berghei NK65; [7]) [%] | inhibition in vivo at 50 mg/kg/day (Plasmodium berghei NK65; [8]) [%] | inhibition in vivo at 50 mg/kg/day (Plasmodium berghei NK65; [9]) [%] | Mean parasitaemia ± SD, Day 5 (Plasmodium berghei NK65; day 5) [%] | Mean parasitaemia ± SD, Day 7 (Plasmodium berghei NK65; day 7) [%] | Mean parasitaemia ± SD, Day 10 (Plasmodium berghei NK65) [%] | further results |
| --- | --- | --- | --- | --- | --- | --- | --- | --- | --- | --- | --- | --- | --- | --- | --- | --- | --- | --- | --- | --- | --- |
| CC(C)(C)OC(=O)NCCCCNC1CCC2(CC1)OOC1(O2)C2CC3CC(C2)CC1C3 (stereo not shown) [MIS14] | 413 ± 20.2 | 390 ± 17.8 | 8439.9 | 7399.1 | 847.2 | 798.8 | 0.3 | > 1 | 25575.4 | 22421.5 | 2567.4 | 2420.7 |  |  |  |  |  |  |  |  | Resistance Index RIa = IC50 (Dd2)/IC50 (3D7) [1]: 1.1; decrease in HepG2 survival ([4]; maximum dose of 1 mM): ~30% |
| Cn1nnc(N)n1 [LC126II, 2-methyl-2H-tetrazole-5-amine] |  |  |  |  |  |  |  |  |  |  |  |  |  |  |  |  |  |  |  |  | IC50 ([1]; Plasmodium falciparum, DD2, read-out: P. falciparum IC50 ± SD, Dd2): > 10000 nM; antiplasmodial activity of building blocks in words ([1]; tested separately, Dd2 and 3D7 (Additional file 1)): devoid of antiplasmodial activity; IC50 [6]: > 10000 nM |
| c1ccc(-n2nnnc2OCC2CCC3(CC2)OOC2(O3)C3CC4CC(C3)CC2C4)cc1 (stereo not shown) [LC132] | 25 ± 7.4 | 19.7 ± 3.4 | 41322.3 | 37596.9 |  | 40000.0 | 1.0 | > 1 | 41322.3 | 37596.9 | 50761.4 | 40000.0 | 1.03 | 0.81 | 100 | 100 | 94.5 | 0 | 0 | 0.31 ± 0.10 | Resistance Index RIa = IC50 (Dd2)/IC50 (3D7) [1]: 1.1; times less active than LC131 or LC136 ([1]; in vitro, strain not stated): up to 12; in vivo outcome against P. berghei in words (Plasmodium berghei NK65): recrudescence also occurred on day 10; also recorded: allowed recrudescence on day 10 |
| CCN(CC)CCCC(C)Nc1ccnc2cc(Cl)ccc12 (stereo not shown) [CQ, chloroquine, reference compound] |  |  |  |  |  |  |  |  |  |  |  |  |  |  |  |  |  |  |  |  | IC50 ([1]; Plasmodium falciparum, DD2, read-out: P. falciparum IC50 ± SD, Dd2, strain Dd2): 340 ± 20.7 nM; IC50 ([1]; read-out: P. falciparum IC50 ± SD, Dd2, strain Dd2): 340 ± 20.7 nM; IC50 [6]: 15.8 ± 0.8 nM |
| CCCCNC(=O)C1CCC2(CC1)OOC1(O2)C2CC3CC(C2)CC1C3 (stereo not shown) [LC92] | 37.7 ± 9.9 | 34.9 ± 7.9 | 37453.1 | 44247.8 | 28653.3 | 26525.2 | 1.0 | > 1 | 37453.1 | 44247.8 | 28653.3 | 26525.2 | 1.41 | 1.31 | 98.3 | 87 | 86.3 | 0.02 ± 0.05 | 0.46 ± 0.60 | 0.77 ± 0.26 | mice presenting parasitaemia, day 5 (Plasmodium berghei NK65; groups of five mice, 50 mg/kg/day oral, day 5): 5 |
| Cn1nnc(NCC2CCC3(CC2)OOC2(O3)C3CC4CC(C3)CC2C4)n1 (stereo not shown) [LC131] | 3.4 ± 2.1 | 4.8 ± 1.2 | 344827.5 | 476190.5 | 208333.3 | 294117.6 | 1.0 | > 1 | 344827.5 | 476190.5 | 208333.3 | 294117.6 | 1.17 | 1.66 | 100 | 100 | 100 | 0 | 0 | 0 | in vivo outcome against P. berghei in words (Plasmodium berghei NK65): complete suppression of parasitaemia; also recorded: total suppression of parasitaemia from day 5 to day 10; also recorded: totally suppressed P. berghei parasitaemia |
| C1C2CC3CC1CC(C2)C31OOC2(CCC(Nc3nnn[nH]3)CC2)O1 (stereo not shown) [LC136] | 6.1 ± 1.9 | 6.8 ± 2.3 | 357142.8 | 400000.0 | 147058.8 | 163934.4 | 1.0 | > 1 | 357142.8 | 400000.0 | 147058.8 | 163934.4 | 2.18 | 2.43 | 100 | 100 | 100 | 0 | 0 | 0 | in vivo outcome against P. berghei in words (Plasmodium berghei NK65): complete suppression of parasitaemia; also recorded: total suppression of parasitaemia from day 5 to day 10; also recorded: totally suppressed P. berghei parasitaemia |
| O=S1(=O)N=C(NCC2CCC3(CC2)OOC2(O3)C3CC4CC(C3)CC2C4)c2ccccc21 (stereo not shown) [LC130] | 8.2 ± 1.9 | 2.4 ± 1.6 | 42918.4 | 40322.6 | 416666.6 | 121951.2 | 1.0 | > 1 | 42918.4 | 40322.6 | 416666.6 | 121951.2 | 0.35 | 0.10 | 100 | 60.8 | 76.7 | 0 | 1.4 ± 0.94 | 1.32 ± 0.24 | in vivo outcome against P. berghei in words (Plasmodium berghei NK65): recrudescence occurred on day 7; mice parasitemic, day 7 (Plasmodium berghei NK65; groups of five mice, 50 mg/kg/day oral, day 7): 2/5 |
| O=S1(=O)N=C(OCC2CCC3(CC2)OOC2(O3)C3CC4CC(C3)CC2C4)c2ccccc21 (stereo not shown) [LC129] | 36.4 ± 0.6 | 29.3 ± 0.7 | 23310.0 | 23148.1 | 29673.5 | 27502.7 | 1.0 | > 1 | 23310.0 | 23148.1 | 29673.5 | 27502.7 | 0.85 | 0.79 | 87.6 | 50.7 | 76.7 | 0.19 ± 0.12 | 1.76 ± 1.36 | 1.32 ± 1.24 | in vivo outcome against P. berghei in words (Plasmodium berghei NK65): failed to completely suppress it |
